These results are taken from patent US8735387B2, “Oxazolopyrimidines as Edg-1 receptor agonists” (Sanofi, priority 2008, dated 2014).

The target in the experiment is T1, human Edg-1 receptor (Homo sapiens, UniProt P21453).
T1 construct: expressed in transfected cells; membrane preparation
T1 sequence (P21453 whole entry): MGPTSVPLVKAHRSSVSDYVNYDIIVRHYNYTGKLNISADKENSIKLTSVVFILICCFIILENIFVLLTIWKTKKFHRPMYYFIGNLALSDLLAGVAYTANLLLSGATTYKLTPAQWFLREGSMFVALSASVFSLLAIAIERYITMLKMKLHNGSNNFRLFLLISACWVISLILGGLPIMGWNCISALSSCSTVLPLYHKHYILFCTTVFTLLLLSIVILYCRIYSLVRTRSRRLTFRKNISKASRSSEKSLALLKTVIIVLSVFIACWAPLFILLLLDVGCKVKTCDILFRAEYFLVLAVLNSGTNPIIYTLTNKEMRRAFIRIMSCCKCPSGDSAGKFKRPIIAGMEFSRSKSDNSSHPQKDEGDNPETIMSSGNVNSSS
Description: GTP-γ-S assay using human Edg-1 receptors (scintillation proximity assay, membrane preparation from CHO Flp-In cell line). It is filed as biochemical. The settings on record: example compound at 10 μM; relative to 10 μM S1P; GTP-γ-S SPA, human Edg-1 membranes. The procedure, abridged: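 Membranes came from Flp-In CHO cells constitutively expressing human Edg-1 carrying an N-terminal FLAG tag. Compound-induced receptor activation was read as GTP-γ-S binding in a scintillation proximity format.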
Take `CCOc1nc(Cc2ccc(Cl)cc2)nc2oc(-c3cc(C)c(OCC(O)CN(C(C)C)C(C)C)c(C)c3)nc12` (stereo not shown) [Example 259]: the “% Activation (Edg-1 receptor activation in percent of the activation by 10 μM S1P)” value is recorded as 66%. With `CCOc1nc(Cc2ccc(Cl)cc2)nc2oc(-c3cc(C)c(OCC(O)CNC(=O)C4(O)CC4)c(C)c3)nc12` (stereo not shown) [Example 260], the “% Activation (Edg-1 receptor activation in percent of the activation by 10 μM S1P)” value came out at 95%. In the case of `CCOc1nc(Cc2ccc(Cl)cc2)nc2oc(-c3cc(C)c(OCC(O)CNC4CCC(C(F)(F)F)CC4)c(C)c3)nc12` (stereo not shown) [Example 261] it was 86%; in that of `CCOc1nc(Cc2ccc(Cl)cc2)nc2oc(-c3cc(C)c(OCC(O)CNC4CCN(CC(C)C)CC4)c(C)c3)nc12` (stereo not shown) [Example 262], 43%; in that of `CCOc1nc(Cc2ccc(Cl)cc2)nc2oc(-c3cc(C)c(OCC(O)CN)c(C)c3)nc12` (stereo not shown) [Example 263], 138%. With `CCOc1nc(Cc2ccc(Cl)cc2)nc2oc(-c3cc(C)c(OCC(O)CN(C)C)c(C)c3)nc12` (stereo not shown) [Example 264] the figure was 55%.

For the molecule `CCOc1nc(Cc2ccc(Cl)cc2)nc2oc(-c3cc(C)c(OCC(O)CNC4CCC(C)CC4)c(C)c3)nc12` (stereo not shown) [Example 265], the “% Activation (Edg-1 receptor activation in percent of the activation by 10 μM S1P)” value came out at 132%.

For `CCOc1nc(Cc2ccc(Cl)cc2)nc2oc(-c3cccc(OCC(=O)NCCN4CCOCC4)c3)nc12` [Example 266], the “% Activation (Edg-1 receptor activation in percent of the activation by 10 μM S1P)” value amounted to 52%. In the case of `CCOc1nc(Cc2ccc(Cl)cc2)nc2oc(-c3cccc(OCC(=O)NCC(=O)O)c3)nc12` [Example 267] it was 72%.

Turning to `CCOc1nc(Cc2ccc(Cl)cc2)nc2oc(-c3cccc(OCC(=O)N[C@@H](C)C(=O)O)c3)nc12` [Example 268], the “% Activation (Edg-1 receptor activation in percent of the activation by 10 μM S1P)” value stood at 100%.

Consider `CCOc1nc(Cc2ccc(Cl)cc2)nc2oc(-c3cccc(OCC(=O)N4CCC[C@@H]4C(=O)O)c3)nc12` [Example 269], for which the “% Activation (Edg-1 receptor activation in percent of the activation by 10 μM S1P)” value turned out to be 69%. Regarding `CCOc1nc(Cc2ccc(Cl)cc2)nc2oc(-c3cccc(OCC(=O)N4CCC[C@H]4C(=O)O)c3)nc12` [Example 270], the “% Activation (Edg-1 receptor activation in percent of the activation by 10 μM S1P)” value is 104%. With `CCOc1nc(Cc2ccc(Cl)cc2)nc2oc(-c3cccc(OCC(=O)NC(C)(C)C(=O)O)c3)nc12` [Example 271], the “% Activation (Edg-1 receptor activation in percent of the activation by 10 μM S1P)” value turned out to be 53%. For `CCOc1nc(Cc2ccc(Cl)cc2)nc2oc(-c3cc(C)c(OCC(O)CS(=O)(=O)c4nnc(C)[nH]4)c(C)c3)nc12` (stereo not shown) [Example 272], the “% Activation (Edg-1 receptor activation in percent of the activation by 10 μM S1P)” value stood at 105%. Consider `CCOc1nc(Cc2ccc(Cl)cc2)nc2oc(-c3ccc(O)c(F)c3)nc12` [Example 273], for which the “% Activation (Edg-1 receptor activation in percent of the activation by 10 μM S1P)” value is 106%. For the molecule `CCOc1nc(Cc2ccc(Cl)cc2)nc2oc(-c3cc(C)c(OCCCS(=O)(=O)c4nnc(C5CC5)[nH]4)c(C)c3)nc12` [Example 274], the “% Activation (Edg-1 receptor activation in percent of the activation by 10 μM S1P)” value turned out to be 120%. Turning to `CCOc1nc(Cc2ccc(Cl)cc2)nc2oc(-c3cc(C)c(OCCCS(=O)(=O)c4nnc(C(C)C)[nH]4)c(C)c3)nc12` [Example 275], the “% Activation (Edg-1 receptor activation in percent of the activation by 10 μM S1P)” value was 88%. As to `CCOc1nc(Cc2ccc(Cl)cc2)nc2oc(-c3cc(C)c(OCCCSc4nnc(C5CC5)[nH]4)c(C)c3)nc12` [Example 276], the “% Activation (Edg-1 receptor activation in percent of the activation by 10 μM S1P)” value is 54%. As for `CCOc1nc(Cc2ccc(Cl)cc2)nc2oc(-c3ccc(OC)c(F)c3)nc12` [Example 277], the “% Activation (Edg-1 receptor activation in percent of the activation by 10 μM S1P)” value is 49%. In the case of `CCOc1nc(Cc2ccc(Cl)cc2)nc2oc(-c3cc(C)c(OCCCS(=O)(=O)c4nnc(C(C)(C)C)[nH]4)c(C)c3)nc12` [Example 278] it was 105%; in that of `CCOc1nc(Cc2ccc(Cl)cc2)nc2oc(-c3ccc(OCC(=O)NCCN4CCOCC4)c(F)c3)nc12` [Example 279], 77%. With `CCOc1nc(Cc2ccc(Cl)cc2)nc2oc(-c3cc(C)c(OCC(O)CNCCCNS(C)(=O)=O)c(C)c3)nc12` (stereo not shown) [Example 280], the “% Activation (Edg-1 receptor activation in percent of the activation by 10 μM S1P)” value is given as 53%. For `CCOc1nc(Cc2ccc(Cl)cc2)nc2oc(-c3cc(C)c(OCC(O)CSc4nnc(C5CC5)[nH]4)c(C)c3)nc12` (stereo not shown) [Example 281], the “% Activation (Edg-1 receptor activation in percent of the activation by 10 μM S1P)” value amounted to 79%. For the molecule `CCOc1nc(Cc2ccc(Cl)cc2)nc2oc(-c3cc(C)c(OCC(O)CSc4nnc(C(C)(C)C)[nH]4)c(C)c3)nc12` (stereo not shown) [Example 282], the “% Activation (Edg-1 receptor activation in percent of the activation by 10 μM S1P)” value is 108%. Consider `CCOc1nc(Cc2ccc(Cl)cc2)nc2oc(-c3cc(C)c(OCC(O)CS(=O)(=O)c4nnc(C(C)(C)C)[nH]4)c(C)c3)nc12` (stereo not shown) [Example 283], for which the “% Activation (Edg-1 receptor activation in percent of the activation by 10 μM S1P)” value was determined as 92%.

Consider `CCOc1nc(Cc2ccc(Cl)cc2)nc2oc(-c3cccc(OC)c3)nc12` [Example 284], for which the “% Activation (Edg-1 receptor activation in percent of the activation by 10 μM S1P)” value was 103%. In the case of `CCOc1nc(Cc2ccc(Cl)cc2)nc2oc(-c3cc(C)c(OCCCNCCc4nc(O)n[nH]4)c(C)c3)nc12` [Example 285], the “% Activation (Edg-1 receptor activation in percent of the activation by 10 μM S1P)” value came out at 146%. As for `CCOc1nc(Cc2ccc(Cl)cc2)nc2oc(-c3cc(C)c(OCC(O)C[S+]([O-])c4ncn[nH]4)c(C)c3)nc12` (stereo not shown) [Example 286], the “% Activation (Edg-1 receptor activation in percent of the activation by 10 μM S1P)” value turned out to be 114%. Regarding `CCOc1nc(Cc2ccc(Cl)cc2)nc2oc(-c3cc(C)c(OCC(=O)NCCS(N)(=O)=O)c(C)c3)nc12` [Example 287], the “% Activation (Edg-1 receptor activation in percent of the activation by 10 μM S1P)” value is listed as 112%.

As to `CCOc1nc(Cc2ccc(Cl)cc2)nc2oc(-c3cc(C)c(OCC(=O)NCCCC(=O)O)c(C)c3)nc12` [Example 288], the “% Activation (Edg-1 receptor activation in percent of the activation by 10 μM S1P)” value turned out to be 113%. Turning to `CCCOc1nc(Cc2ccc(Cl)cc2)nc2oc(-c3cc(C)c(OCCCN[C@@H](Cc4ccccc4)C(=O)O)c(C)c3)nc12` [Example 289], the “% Activation (Edg-1 receptor activation in percent of the activation by 10 μM S1P)” value is 80%. With `CCOc1nc(Cc2ccc(Cl)cc2)nc2oc(-c3cc(C)c(OCC(=O)NCCNS(C)(=O)=O)c(C)c3)nc12` [Example 290], the “% Activation (Edg-1 receptor activation in percent of the activation by 10 μM S1P)” value is 114%. In the case of `CCOc1nc(Cc2ccc(Cl)cc2)nc2oc(-c3cc(C)c(OCC(O)CS(=O)(=O)c4ncn[nH]4)c(C)c3)nc12` (stereo not shown) [Example 291] it was 116%; in that of `CCOc1nc(Cc2ccc(Cl)cc2)nc2oc(-c3cc(C)c(OCCC[S+]([O-])c4ncn[nH]4)c(C)c3)nc12` (stereo not shown) [Example 292], 86%; in that of `CCOc1nc(Cc2ccc(Cl)cc2)nc2oc(-c3cc(C)c(OCC(O)CSc4ncn[nH]4)c(C)c3)nc12` (stereo not shown) [Example 293], 99%. As to `CCOc1nc(Cc2ccc(Cl)cc2)nc2oc(-c3cc(C)c(OCC(=O)NCC#N)c(C)c3)nc12` [Example 294], the “% Activation (Edg-1 receptor activation in percent of the activation by 10 μM S1P)” value is reported as 83%. With `CCOc1nc(Cc2ccc(Cl)cc2)nc2oc(-c3cc(C)c(OCCCS(=O)(=O)c4ncn[nH]4)c(C)c3)nc12` [Example 295] the figure was 100%.
